We go through one compound from patent publication US11999697B2, “Methods and compositions for inhibition of dihydroorotate dehydrogenase” (OHIO STATE INNOVATION FOUNDATION, priority 2018, dated 2024).

A word on the IC50: it is the concentration that gives 50% inhibition.

Experiment [1] relates to normal T-cells (CD4, CD8). Put plainly: CFSE proliferation assay. The format is cell-based, human. The conditions noted are these: 0.3 and 1 μM, CD3/CD28 stimulation, 72 hours. The method, then: CFSE proliferation assays: Peripheral blood mononuclear cells from healthy adults were negatively selected to enrich for CD3, CD4, or CD8 T-cells. Cells were then stained with carboxyfluorescein succinimidyl ester (CSFE) and stimulated with plate bound anti-CD3 and soluble anti-CD28 antibodies. Proliferation was determined by CFSE dilution in the presence of vehicle or Cpd3 (0.3 and 1 μM doses) at 72 hours.
FIGS. 7A-7I show representative cell proliferation data for normal T-cells following treatment with vehicle or a representative disclosed compound, Cpd3 in the presence or absence of CD3/CD28 stimulation using a CSFE proliferation flow cytometry assay as described herein below. Briefly, T-cells were isolated from normal healthy donors, labeled with CSFE, and then either left unstimulated or co-stimulated with CD3/CD28 in the presence of vehicle or Cpd3 (0.3 and 1 μM doses) for 72 hours. Proliferation was determined by CSFE dilution in CD4 and CD8 T-cells. Data shown in FIGS. 7A-7H were obtained from one representative normal donor.

A further experiment concerns OCI-AML3. Put plainly: MTS cell proliferation assay, OCI-AML3. The format is cell-based. The conditions noted are these: Homo sapiens. The method, then:
(§1) Triplicate wells were set up for each condition.
(§2) The assays were carried out in a blinded fashion.
(In general: Formazan colour is commonly taken as a measure of viable cells.)

In experiment [2] the test system is primary human AML cells. Put plainly: Colony formation (CFU) assay in methocult media. The format is cell-based. The note with it: 1 μM, 14 days. The method, then: Colony formation (CFU) assays in methocult media: CFU assays can detect an increase or decrease in the frequency of the hematopoietic progenitor proliferation and/or changes in differentiation potential in response to stimulatory, inhibitory or toxic agents. For CFU assays with primary AML cells, cells were cultured overnight in media containing IL-3, GM-CSF, SCF, and FLT3L cytokines at 20 ng/ml. 10-25K primary cells were suspended in MethoCult™ Optimum without EPO which is supplemented with SCF, IL-3, G-CSF, GM-CSF along with vehicle, 1 μM Cpd3 or 1 μM brequinar. After 14 days the total number of colonies was counted and the cells were solubilized from the methocult for cytospin assays described below. […] FIGS. 3A-3B show representative data for colony formation for primary human AML cells in the presence of a representative disclosed compound, Cpd3, compared to a reference compound, brequinar, or vehicle treatment using methods as described herein below. Briefly, primary AML cells were treated with vehicle (DMSO), Cpd3 (1 μM) or brequinar sodium (BQR, 1 μM) and plated in methocult media for 14 days. Results are plotted as the total number of colonies per each condition. Lines connecting data from the same patient sample are shown in order to indicate the trend within a particular sample.

A further experiment addresses T1, DHODH (Homo sapiens, UniProt Q02127).
T1 construct: made in house
Put plainly: DHODH enzymatic assay (DCIP reduction). In kind it is biochemical. The procedure:
DHODH Enzymatic Assay: DHODH activity was determined at 25° C. following the reduction of 2,6-dichloroindophenol sodium salt (DCIP) at 600 nm (ε=18 800 M^−1 cm^−1) on a spectrophotometer. The reaction medium used contained 50 mM Tris-HCl, pH 8.0, 0.1% Triton X-100, 0.1 mM LDHO, 0.025 mM CoQ1, and 0.06 mM DCIP. The reaction was started by addition of the enzyme. The inhibitory potency of the compounds was evaluated by measuring the initial velocity of the reaction either in the absence or in the presence of the compounds at the indicated concentrations. The DHODH enzyme used was the recombinant human enzyme prepared as previously described (Helene Munier-Lehmann, et al., J. Med. Chem. 2015, 58:860-877).

The test system of experiment [3] is primary human AML cells. Put plainly: MTS assay in primary AML cells on HS5 stromal cells. The conditions noted are these: 96 hours. In kind it is cell-based. The method, then: as §1
Cpd3 efficacy was assessed in primary AML samples. Due to the poor in vitro viability of primary cells, these assays were performed in the presence of a support layer of human bone marrow stromal cells (HS5). Cells were treated with Cpd3 or BQR for 96 hours, followed by viability using an MTS assay. FIGS. 2A-2B show representative data for proliferation of primary human AML cells in the presence of a representative disclosed compound, Cpd3, compared to a reference compound, brequinar (BQR), using a MTS cell proliferation assay as described herein below. Briefly, primary AML cells were cultured in the presence human bone marrow stromal cells, and were treated with vehicle (DMSO), or varying doses of Cpd3 or brequinar sodium (BQR) for 96 hours. Cell growth was determined at 96 hours relative to the vehicle (DMSO) control using an MTS assay (N=6 primary AML samples). […] The IC50 values determined were variable, with an […] of about 0.2 μM in some samples. However, in other primary cell samples an IC50 could not be determined (FIG. 2A).

The test system of a further experiment is HL-60. Put plainly: MTS cell proliferation assay, HL-60. In kind it is cell-based. The note with it: Homo sapiens, 96 hours. The method, then:
as §1, §2

For experiment [4], the system named is primary human AML cells. Put plainly: Flow cytometry staining for differentiation (CD11b/CD14). The format is cell-based. The conditions noted are these: 1 μM, 14 days. The method, then:
Flow cytometry staining for differentiation: Primary AML cells were solubilized from the methocult in the CFU assays. 5e5 cells were stained and analyzed by flow cytometry as follows: Gating on CD45 positive hematopoietic cells; B, T and NK-cells were identified using CD19, CD3 and NK1.1 surface markers; differentiation in the myeloid population was assessed by gating on CD34/CD33 positive myeloid cells and staining for CD11 b and CD14.
FIGS. 5A-5E show representative flow cytometry data for induction of CD11b and CD14 positive cells in primary human AML cells following vehicle treatment, treatment with a representative disclosed compound, Cpd3, or treatment with a reference compound, brequinar (indicated as “BQR” in the figures) using methods as described herein below. Briefly, primary AML cells were treated with vehicle (DMSO), Cpd3 (1 μM) or brequinar (BQR, 1 μM) and plated in methylcellulose for 14 days. Cells were recovered from the methylcellulose and characterized by flow cytometry (gating on CD34/CD33 positive myeloid cells and staining for CD11b and CD14). FIGS. 5A-5C show the percentage of CD11b and CD14 positive cells within the live CD33/CD34 positive population for a representative “responder” sample. FIGS. 5D and 5E show collective data for eight primary AML samples. […]

Where two headings read alike, the source gives them in different places.

T1 sequence (Q02127 whole entry): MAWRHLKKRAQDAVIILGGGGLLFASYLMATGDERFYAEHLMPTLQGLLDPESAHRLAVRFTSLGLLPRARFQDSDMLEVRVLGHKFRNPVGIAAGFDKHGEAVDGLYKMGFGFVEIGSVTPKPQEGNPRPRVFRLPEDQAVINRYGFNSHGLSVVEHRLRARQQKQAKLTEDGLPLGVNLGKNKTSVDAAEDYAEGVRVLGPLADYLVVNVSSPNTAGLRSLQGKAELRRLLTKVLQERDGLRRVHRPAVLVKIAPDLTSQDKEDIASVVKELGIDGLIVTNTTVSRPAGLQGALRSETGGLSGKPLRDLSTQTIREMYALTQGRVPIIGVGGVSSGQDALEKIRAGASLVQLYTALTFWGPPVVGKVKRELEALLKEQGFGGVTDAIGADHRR

Consider `CCOc1ccc(-c2ccc(-c3cc(C(=O)O)c4cc(F)ccc4n3)cc2)cc1` [Cpd3, 2-(4′-ethoxy-[1,1′-biphenyl]-4-yl)-6-fluoroquinoline-4-carboxylic acid], for which the T-cell proliferation entry in experiment [1] is reported as “inhibits T-cell proliferation”. The half-inhibitory concentration (IC50) was determined as 321 nM in the experiment on OCI-AML3 (OCI-AML-3, 96 hour, Table 6, read-out: 96 hour IC50 (nM) in OCI-AML-3 cell line); 610 nM in the experiment with OCI-AML3 (OCI-AML-3, 96 hours, read-out: IC50 (μM) at 96 hours, OCI-AML3); 43 nM on DHODH (range in parentheses, read-out: DHODH inhibition, IC50); 0.28 µM in the experiment on HL-60. Further, the “growth in methocult colony forming unit (CFU) assays” value in the experiment with primary human AML cells [2] was “decreased growth”. For the same compound, at DHODH (compound concentration not given), the “DHODH inhibition, % inhibition” value is reported as 97%. In the experiment on primary human AML cells [3] (HS5 stromal support, some samples), the “IC60 in primary AML samples” value is given as “about 0.2 μM”. Further, the “growth of primary AML cells” value in the experiment on primary human AML cells [3] (N=6 primary AML samples) is “decreases growth of primary AML cells comparable to the reference compound”. Moreover, in the experiment with primary human AML cells [4], the “induction of CD11b and CD14 positive cells” value was “induces CD11 b and CD14 in primary human AML cells”.
